Experimental data published in paper PMC6831561, “Pharmacological and Behavioral Effects of the Synthetic Cannabinoid AKB48 in Rats” (Frontiers in Neuroscience, 2019).
Where two headings read alike, the source gives them in different places.

Legend:
rats [1] = assay: Conditioned place preference paradigm; type: in vivo
From the text: The CPP chambers consisted of two equally sized compartments interconnected by a guillotine door, adopting a classical conditioning procedure that has been successfully used to assess the rewarding properties of several drugs of abuse. The compartments are differentiated by both visual and tactile cues: the color of the walls in each compartment (white or black) and the texture of the floors (wooden flat or metal wired). The box was placed in a dimly illuminated room. Place conditioning morning sessions ran from 8:30 a.m. to noon, while afternoon sessions ran from 2:30 p.m. to 6 p.m.
According to the conditioned place preference paradigm, on day 0 (pre-test), rats freely explored the two compartments for 15 min, and the time spent in each compartment during the exploratory period was measured. Rats that spent 60–70% of the total time on one side were excluded from the experiment. We used an unbiased-like protocol and assigned the drug-paired compartment randomly. On days 1–3 (conditioning phase), male Sprague-Dawley rats (n = 24) were divided into three groups (n = 8 per group) and given injections of AKB48 (0.1 or 0.5 mg/kg) or vehicle twice daily (9:00 a.m. to 7:00 p.m.) and confined to one compartment for 30 min for 3 days. During these conditioning trials, the animals developed an association between the subjective state produced by the drug and the environmental cues present in the compartment in which they received the drug. On day 4 (test day), rats were allowed to explore the two compartments freely for 15 min, and the time spent in each compartment during the exploratory period was measured.
To evaluate if the aversive effect obtained with the higher dose of AKB48 (0.5 mg/kg) was mediated by activation of CB1 cannabinoid receptors, male Sprague-Dawley rats (n = 32) were divided into four groups (n = 8 per group). Group 1 received AKB48 vehicle in both compartments and served as a control. […] CB1 antagonist was injected 20 min before the agonist AKB48, which was given 10 min prior to the test.

hepatocyte model = settings: ref Gandhi et al., 2013; cited from earlier work
rats [2] = assay: Core and surface body temperature; type: in vivo
Method: To better assess the effects of the ligands on thermoregulation, we measured both changes in the core (rectal) and surface (ventral fur) temperature. The core temperature was evaluated by a probe (1 mm diameter) that was gently inserted, after lubrication with liquid Vaseline, into the rectum of the rat (to about 2 cm) and left in position until the stabilization of the temperature (about 10 sec; [De Luca et al., 2015]; [Vigolo et al., 2015]). The probe was connected to a Cole Parmer digital thermometer, model 8402. The surface temperature was measured by a Microlife FR 1DZ1 digital infrared thermometer, placed 1 cm from the surface of the abdomen of the rat ([Vigolo et al., 2015]). Core and surface body temperatures were measured at 0, 15, 35, 65, 125, and 190 min.

[3] = AKB48 plasma pharmacokinetics (LC-MS/MS); type: in vivo, rats; settings: for Tmax: male, Sprague-Dawley, rat, plasma, ip, read-out: time to peak plasma concentration (converted)
Method: To correlate the pharmacological effects of AKB48 with its blood levels, we measured somatosensory responses (visual, acoustic, and tactile), body temperature, and mechanical analgesia in rats at timed intervals post-AKB48 injection (for behavioral tests, see before), while simultaneously obtaining serial blood specimens for analysis of AKB48.
Sixteen male Sprague-Dawley rats were used in the study. Rats were anaesthetized with Equitesin [3 mL/kg intraperitoneal (ip); chloral hydrate 2.1 g, sodium pentobarbital 0.46 g, MgSO 1.06 g, propylene glycol 21.4 mL, ethanol (90%) 5.7 mL, H2O 3 mL] and implanted in the right jugular vein with a catheter, consisting of medical-grade tubing (Silastic, Dow Corning Corporation, MI, United States) according to the technique previously described ([Lecca et al., 2006]). A stable fixation in the mid-scapular region of the back was embedded by a polypropylene mesh (Evolution, BULEV, weight 48 g/mq, Dipromed, Italy). During the recovery period, at least 7 days after surgery, the catheters were flushed daily with 0.1 mL of gentamicin (40 mg/mL) and with heparinized saline (heparin 250 U/mL in 0.9% sterile saline). Fifteen days after recovery from surgery, rats were trained in handling, behavioral tests, and withdrawing blood from the catheter. Four groups of rats (n = 4) randomly received intraperitoneal injection of a single dose of AKB48 (0.1, 0.3, 0.5, or 3.0 mg/kg), and behavioral tests were conducted as previously reported in safety pharmacology studies (see before). Blood specimens (300 μL) were withdrawn via catheters immediately before the behavioral measurements (T = 0) and at 20, 40, 70, 140, and 195 min after drug injection. Blood specimens were collected into 1–mL vials containing sodium fluoride (4 mg/mL of blood) as preservative and anticoagulant. After each blood withdrawal, an equal volume of saline solution was infused via the intravenous catheter to maintain volume and osmotic homeostasis.
A dispersive liquid-liquid microextraction (DLLME) was performed for sample purification. Three hundred microliter of blood samples were spiked with 10 μL of JWH-209 D9 as an internal standard, achieving the final concentration of 20 ng/mL, and deproteinized with 500 μL of methanol. The sample was centrifuged at 10,000 rpm for 10 min, and 500 μL surnatant was transferred into a 15 mL conical tube containing 1 mL of water, 0.2 g of NaCl, and 100 μL of carbonate buffer, pH 9. In order to obtain the formation of the cloudy solution, 350 μL of a mixture, chloroform/methanol 1:2.5, respectively the extractant and the disperser solvent, was rapidly added to obtain the formation of a turbid mixture. […]

Row | Structure (SMILES) | conditioned place preference (rats [1]; AKB48 0.1 mg/kg) | conditioned place preference (rats [1]; AKB48 0.5 mg/kg) | number of major metabolites (hepatocyte model) | time at which the core temperature effect was evident (rats [2]; AKB48 3 mg/kg i.p.) | surface body temperature (rats [2]; AKB48 0.1–3 mg/kg i.p.) | core body temperature (rats [2]; AKB48, only at 3 mg/kg i.p.) | plasma concentration versus dose ([3]; 0.1–3.0 mg/kg i.p.) | plasmatic concentrations after the peak ([3]; for the following 120 min) | Tmax ([3]; higher doses (0.5 and 3.0 mg/kg i.p.)) | Tmax ([3]; low doses (0.1 and 0.3 mg/kg i.p.)) | aversive effect of AKB48 on place preference, with AM251 (rats [1]; AM251 1 mg/kg i.p. + AKB48 0.5 mg/kg) | response to AM251 alone in the body temperature section (rats [2]; AM251 1 mg/kg i.p. alone) | hypothermia induced by AKB48, after AM251 pre-treatment (rats [2]; AM251 1 mg/kg i.p. before AKB48 3 mg/kg i.p.)
1 | CCCCCn1nc(C(=O)NC23CC4CC(CC(C4)C2)C3)c2ccccc21 [AKB48, N-(1-adamantyl)-1-pentyl-1H-indazole-3-carboxamide] | ineffective | significant aversive effect | 11 | 65 min | did not affect | reduced | rising linearly | remained quite stable | 60 min | 30 min | – | – | –
2 | Cc1c(C(=O)NN2CCCCC2)nn(-c2ccc(Cl)cc2Cl)c1-c1ccc(I)cc1 [AM251, 1-(2,4-dichlorophenyl)-5-(4-iodophenyl)-4-methyl-N-(piperidin-1-yl)-1H-pyrazole-3-carboxamide, reference compound] | – | – | – | – | – | – | – | – | – | – | blocked | did not alter | prevented
